{"source": "patent US12636291B2", "about": "“Compositions and methods relating to use of agonists of ALPHA5-containing GABAA receptors” (Centre for Addiction and Mental Health, priority 2019, dated 2026)", "system": "Layer II/III pyramidal cells of prefrontal cortex (PFC)", "test": "Golgi staining morphological analysis of PFC pyramidal cells", "format": "in vivo, mouse", "settings": "for spine density versus branch orders, overall: FIG. 17A; for spine density versus branch orders, basal dendrites: FIG. 17B; for spine density versus branch orders, apical dendrites: FIG. 17C; for spine density at 30 micron intervals from the soma, overall: FIG. 18A; for spine density at 30 micron intervals from the soma, basal dendrites: FIG. 18B; for spine density at 30 micron intervals from the soma, apical dendrites: FIG. 18C", "procedure": "Details of the animals, materials, and methods used are provided following the discussion section below. Briefly, all studies discussed below were conducted using three groups of animals designated “Young” (2 months of age at the beginning of the 8-week study, 4 months of age at time of testing; “Old” (22 months of age at beginning of study, 24 months of age at time of testing); and “Treatment” (“Old” mice who received GL-II-73 in the drinking water for 8 weeks prior to evaluation of cognitive ability and pyramidal cell morphology). The last study further included a fourth group of animals, “Treatment+Washout” which were treated the same as the “Treatment” group except that the GL-II-73 was removed for a 1 week “wash-out” period prior to evaluation of pyramidal cell morphology.\nTable 1 summarizes the results of a quantitative assessment of the morphological properties of Layer II/III pyramidal cells of prefrontal cortex (PFC) between Young, Old, and Treatment groups. […] Check marks represent countable spines; X's represent uncountable spines. The total number of sampled neurons in the PFC study was 72 cells with a total of 1,888 dendritic segments, 193,698 total dendritic lengths (μm), and 199,529 spine counts, respectively.\nTable 2 summarizes the results of a quantitative assessment of the morphological properties of Layer II/III pyramidal cells of prefrontal cortex (PFC) between Young, Old, Old-Treatment, and Old-washout groups. As noted above, mice assigned to the “Young” group were 2 months of age at the beginning of the 8-week study and 4 months of age at time of testing; mice assigned to the “Old” group were 22 months of age at beginning of study, 24 months of age at time of testing; mice assigned to the “Old-Treatment” group were the same age as the “Old” group and received GL-II-73 in their drinking water for 8 weeks prior to evaluation; and mice assigned to the “Old-washout” group were the same age and treatment as the “Old-Treatment” group except that the GL-II-73 was removed for a 1 week “wash-out” period prior to evaluation. Differences in total dendritic lengths, overall spine counts, and overall spine density between groups were determined via ANOVA analysis.\nDrug preparation and administration: The compound GL-II-73 was administered in the drinking water for 8 weeks, and made fresh every other day to prevent any deterioration of the compound in the water at room temperature. The solution was prepared at 30 mg/kg for an estimated volume of 8 ml/mouse/day, based on previous calculations. For the pilot study in the 5×FAD mouse model, the compound GL-II-73 was prepared for intra peritoneal injection only, at a dose of 10 mg/kg. Vehicle solution was made of 85% distilled water, 14% propylene glycol and 1% tween-80.\nBrain collection and Golgi staining: Twenty-four hours after the completion of the behavioral testing, mice were euthanized using cervical dislocation. Brains were carefully collected from the skull, rinsed with MilliQ water and immersed in the Golgi staining solution provided by Neurodigitech (San Diego, CA). Six hours after the beginning of the incubation, the solution was changed to provide fresh solution. Then brains were left incubating for 14 days at room temperature, in the dark. For better results, vials containing the brains were gently swirled 3 times a week. After the incubation period, the staining solution was discarded and replaced by a storage solution and brains (n=4 per group) were shipped to Neurodigitech for morphological analysis.\nSlice preparation: Brains were cut at 40 μm thickness using a cryostat and mounted on glass slides. The slides included serial coronal sections that covered the anterior-to-posterior axis of the brain. The sampling of ROIs included the basal and apical dendrites of pyramidal cells in Layers II/III of PFC. […]", "key": {"[1]": {"settings": "Table 1, first study, Old, Treatment group, 4 samples"}, "[2]": {"settings": "Table 2, washout study, Old, Treatment group, 4 samples"}, "[3]": {"settings": "Table 2, Old, Washout group, 4 samples"}, "[4]": {"settings": "washout study, FIG. 15B, Treatment vs Old mice, p<0.05"}, "[5]": {"settings": "washout study, FIG. 15B, Washout vs Old mice, p<0.05"}, "[6]": {"settings": "washout study, FIG. 16B, Old+Treatment vs Old mice, p<0.05"}, "[7]": {"settings": "washout study, FIG. 16B, Washout vs Old mice, p<0.05"}, "[8]": {"settings": "washout study, Old+Treatment vs Old mice, p<0.05"}, "[9]": {"settings": "washout study, Washout vs Old mice, p<0.05"}}}
{"smiles": "C#Cc1ccc2c(c1)C(c1ccccc1F)=N[C@H](C)c1c(C(=O)N(C)C)ncn1-2", "note": "(stereo in doubt) [GL-II-73, 8-ethynyl-6-(2-fluorophenyl)-N,N,4-trimethyl-4H-benzo[f]imidazo[1,5-a][1,4]diazepine-3-carboxamide]", "values": [{"measurement": "Total segments", "setting": "Table 1, first study, Old, Treatment group (GL-II-73 in drinking water 8 weeks), 4 samples", "result": 666}, {"measurement": "Overall spinal density", "setting": "[1]", "result": 1.01}, {"measurement": "Total lengths (microns)", "setting": "[1]", "result": "66,656 microns"}, {"measurement": "total spine counts", "setting": "[1]", "result": "67,107"}, {"measurement": "Total segments", "setting": "Table 2, washout study, Old, Treatment group (8 weeks GL-II-73), 4 samples", "result": 1180}, {"measurement": "Overall spinal density", "setting": "[2]", "result": 1.11}, {"measurement": "Total lengths (microns)", "setting": "[2]", "result": 58395, "unit": "microns"}, {"measurement": "total spine counts", "setting": "[2]", "result": 64863}, {"measurement": "Total segments", "setting": "Table 2, Old, Washout group (8 weeks GL-II-73, then 1 week wash-out), 4 samples", "result": 1253}, {"measurement": "Overall spinal density", "setting": "[3]", "result": 1.17}, {"measurement": "Total lengths (microns)", "setting": "[3]", "result": 59414, "unit": "microns"}, {"measurement": "total spine counts", "setting": "[3]", "result": 69305}, {"measurement": "total dendritic lengths", "setting": "first study, FIG. 3A, treatment group vs young mice, p>0.05", "result": "no significant difference in total dendritic length between the young mice and the treatment group"}, {"measurement": "total dendritic lengths, basal dendrite", "setting": "first study, FIG. 3B, between groups, p>0.05", "result": "no difference was found in the basal dendrite between groups"}, {"measurement": "total dendritic lengths, apical dendrites", "setting": "first study, FIG. 3B, treatment group vs old mice, p<0.05", "result": "higher total dendritic lengths of apical dendrites than old mice"}, {"measurement": "total spine counts", "setting": "first study, FIG. 4A, treatment group vs old mice, p<0.05", "result": "higher spine counts than old mice"}, {"measurement": "total spine counts, apical dendrites", "setting": "first study, FIG. 4B, treatment group vs old mice, p<0.05", "result": "higher spine count than old mice"}, {"measurement": "total spine counts, basal dendrites", "setting": "first study, FIG. 4B, treatment group vs young mice, p>0.05", "result": "no difference in both basal and apical dendrites between young mice and the treatment group"}, {"measurement": "overall spine density", "setting": "first study, FIG. 5A, treatment group vs old mice, p<0.05", "result": "higher density than old mice"}, {"measurement": "spine density, apical dendrites", "setting": "first study, FIG. 5B, treatment group vs old mice, p>0.05", "result": "no difference between old mice and the treatment group"}, {"measurement": "spine density × branch orders, overall", "setting": "first study, FIG. 6A, treatment group vs old mice, p<0.05", "result": "higher density at the 1st branch order than old mice"}, {"measurement": "spine density × branch orders, basal dendrites", "setting": "first study, FIG. 6B, treatment group vs old mice, p<0.05", "result": "significantly higher density at the 1st branch order than old mice"}, {"measurement": "spine density × branch orders, apical dendrites", "setting": "first study, FIG. 6C, treatment group vs old mice, p<0.05", "result": "higher density at the 1st order than old mice"}, {"measurement": "spine density × every 30 micron interval from soma, overall", "setting": "first study, FIG. 7A, Sholl analysis, treatment group vs old mice, p<0.05", "result": "higher density at 180 micron interval from soma than old mice"}, {"measurement": "spine density × every 30 micron interval from soma, apical dendrites", "setting": "first study, FIG. 7C, treatment group vs old mice, p<0.05", "result": "higher density at 180 micron interval from soma of the dendritic field than old mice"}, {"measurement": "frequency of intersections × 30 micron interval relative to soma, overall", "setting": "first study, FIG. 8A, old vs treatment group, p<0.05", "result": "significant reductions at a distance of 120-150 micron from the soma between old and young mice as well as between old and the treatment group"}, {"measurement": "frequency of intersections × 30 micron interval, basal dendrites", "setting": "first study, FIG. 8B, old vs treatment group, p>0.05", "result": "a trend of decrease was found at 120-150 micron interval from soma between Old and Young as well as old and the treatment group"}, {"measurement": "frequency of intersections × 30 micron interval, apical dendrites", "setting": "first study, FIG. 8C, treatment group vs old mice, p<0.05", "result": "higher frequency at 120-150 micron interval from soma than old mice"}, {"measurement": "total spine counts", "setting": "washout study, FIG. 15A, Old+Treatment vs Old mice, p<0.05", "result": "more spine counts than Old mice"}, {"measurement": "total spine counts", "setting": "washout study, FIG. 15A, Washout (1 week after 8 weeks GL-II-73) vs Old mice, p<0.05", "result": "more spine counts than Old mice"}, {"measurement": "total spine counts, apical dendrites", "setting": "[4]", "result": "higher spine counts"}, {"measurement": "total spine counts, basal dendrites", "setting": "[4]", "result": "higher spine counts"}, {"measurement": "total spine counts, apical dendrites", "setting": "[5]", "result": "higher spine counts"}, {"measurement": "total spine counts, basal dendrites", "setting": "[5]", "result": "higher spine counts"}, {"measurement": "overall spine density", "setting": "washout study, FIG. 16A, Old+Treatment vs Old mice, p<0.05", "result": "higher spine density than Old mice"}, {"measurement": "overall spine density", "setting": "washout study, FIG. 16A, Washout vs Old mice, p<0.05", "result": "higher spine density than Old mice"}, {"measurement": "spine density, apical dendrites", "setting": "[6]", "result": "Old mice exhibited a lower spine density than Young, Old+Treatment and Washout mice"}, {"measurement": "spine density, basal dendrite", "setting": "[6]", "result": "Old mice showed a significant decrease of spine density in the basal dendrite as compared to Young, Old+Treatment and Washout mice"}, {"measurement": "spine density, apical dendrites", "setting": "[7]", "result": "Old mice exhibited a lower spine density than Young, Old+Treatment and Washout mice"}, {"measurement": "spine density, basal dendrite", "setting": "[7]", "result": "Old mice showed a significant decrease of spine density in the basal dendrite as compared to Young, Old+Treatment and Washout mice"}, {"measurement": "spine density versus branch orders, overall", "setting": "[8]", "result": "higher spine density at the 2nd to 6th"}, {"measurement": "spine density versus branch orders, overall", "setting": "[9]", "result": "3rd to 6th branch orders"}, {"measurement": "spine density versus branch orders, basal dendrites", "setting": "[8]", "result": "higher density at the 5th branch order than Old mice"}, {"measurement": "spine density versus branch orders, basal dendrites", "setting": "[9]", "result": "higher density at the 5th branch order than Old mice"}, {"measurement": "spine density versus branch orders, apical dendrites", "setting": "[8]", "result": "higher density at the 2nd branch order than Old mice"}, {"measurement": "spine density versus branch orders, apical dendrites", "setting": "[9]", "result": "higher spine density at the 5th to 6th branch orders than Old mice"}, {"measurement": "spine density at 30 micron intervals from the soma, overall", "setting": "[8]", "result": "higher spine density at 150 um to 210 um from soma"}, {"measurement": "spine density at 30 micron intervals from the soma, overall", "setting": "[9]", "result": "higher spine density at 90 um to 210 um from soma"}, {"measurement": "spine density at 30 micron intervals from the soma, basal dendrites", "setting": "[8]", "result": "higher density between 150 um and 180 um from soma"}, {"measurement": "spine density at 30 micron intervals from the soma, basal dendrites", "setting": "[9]", "result": "higher density between 120 um and 180 um from the soma than Old mice"}, {"measurement": "spine density at 30 micron intervals from the soma, apical dendrites", "setting": "[8]", "result": "higher density at 180 um to 210 um from soma"}, {"measurement": "spine density at 30 micron intervals from the soma, apical dendrites", "setting": "[9]", "result": "higher spine density at 120 um to 210 um from soma"}]}
